This note sets out measurements from patent US20170000749A1, “Methods for Treating Cognitive Disorders Using Inhibitors of Histone Deacetylase” (Forum Pharmaceuticals, Inc., priority 2008, published 2017).

Like-named read-outs stand apart in the source and are kept apart here.

Assay [1] has as its system HDAC activity in primary mouse cortical cultures. Put plainly: Whole-Cell Histone Deacetylase (HDAC) Inhibition Assay in Primary Mouse Cortical Cultures. It is filed as cell-based. The gist of the method: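 Primary neocortical neurons from E17 Balb/C mouse embryos were plated at 50000 cells/well and treated at DIV9 with ten-point DMSO dilutions for 16-18 h at 37° C, in triplicate. BOC-Lys(Ac)-AMC substrate was then added for 1 h. Fluor de Lys developer containing 1 uM TSA produced a fluorophore, which was read.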

Assay [2] concerns the target one or more of HDAC-1, HDAC-2, HDAC-3, HDAC-4, HDAC-5, HDAC-6, HDAC-7, HDAC-8, HDAC-9, HDAC-10 and HDAC-11. Put plainly: Inhibition of Histone Deacetylase Enzymatic Activity (Boc-Lys(Ac)-AMC substrate, Fluor-de-Lys developer). Format: biochemical. The conditions noted are these: read-out: HDAC Inhibition (IC50 μM) HDAC Enzyme. The method, then: The following protocol is used to assay the compounds of the disclosure.
The mixture is pre-incubated for 5 minutes at room temperature. The reaction is started by bringing the temperature to 37° C. and adding 16 μl substrate. Total reaction volume is 50 μl.
In the Tables 8, 9 and 10, A≦0.05 μM; 0.05 μM<B≦0.1 μM; 0.1 μM<C≦1 μM; and 1 μM<D≦10 μM.

Setting [3] is: whole-cell (WC), mouse cortical neurons, Table 10, read-out: HDAC Inhibition (IC50 μM) WC mouse cortical neurons.
Setting [4] is: whole-cell (WC), mouse cortical neurons, Table 8, read-out: HDAC Inhibition (IC50 μM) WC mouse cortical neurons.
Setting [5] is: whole-cell (WC), mouse cortical neurons, Table 9, read-out: HDAC Inhibition (IC50 μM) WC mouse cortical neurons.

Consider `O=C(CCCCCN1c2ccccc2C=Cc2ccccc21)NO` [(Z)-6-(5H-dibenzo[b,f]azepin-5-yl)-N-hydroxyhexanamide], for which the IC50 is 1 to 5 µM in assay [1] (setting [3]) and < 0.05 µM in assay [2] (Table 10).
With `O=C(NO)c1ccc(C2=Nc3cc(Cl)ccc3Nc3ccccc32)cc1` [(Z)-4-(8-oro-5H-dibenzo[b,e][1,4]diazepin-11-yl)-N-hydroxybenzamide], the results for the half-inhibitory concentration (IC50) in assay [1] (setting [4]) and in assay [2] (Table 8) were 1 to 5 µM and 0.05 to 0.1 µM, respectively.
In the same order, the values of `N#Cc1ccc2c(c1)N=C(c1ccc(C(=O)NO)cc1)c1ccccc1O2` [(Z)-4-(8-cyanodibenzo[b,f][1,4]oxazepin-11-yl)-N-hydroxybenzamide] are 1 to 5 µM and 0.05 to 0.1 µM.
Turning to `O=C(CCCCCC(=O)N1c2ccccc2C=Cc2ccccc21)NO` [(Z)-7-(5H-dibenzo[b,f]azepin-5-yl)-N-hydroxy-7-oxoheptanamide], the values for the IC50 in assay [1] (setting [3]) and in assay [2] (Table 10) were < 1 µM and < 0.05 µM, respectively.
Regarding `Cc1ccc2c(c1)N=C(c1ccc(C(=O)NO)cc1)c1ccccc1O2` [(Z)—N-hydroxy-4-(8-methyldibenzo[b,f][1,4]oxazepin-11-yl)benzamide], the results for the IC50 in assay [1] (setting [4]) and in assay [2] (Table 8) were 1 to 5 µM and 0.05 to 0.1 µM, respectively.
For the compound `O=C(NO)c1ccc(C2=Nc3ccccc3Oc3ccc(Cl)cc32)cc1` [(Z)-4-(2-chlorodibenzo[b,f][1,4]oxazepin-11-yl)-N-hydroxybenzamide], the IC50 in assay [1] (setting [4]) is 5 to 15 µM; in assay [2] (Table 8), < 0.05 µM.
In the same order, the values of `O=C(NO)c1ccc(C2=Nc3ccccc3Oc3c[n+]([O-])ccc32)cc1` [(Z)-5-(4-(hydroxycarbamoyl)phenyl)benzo[b]pyrido[4,3-f][1,4]oxazepine 2-oxide] are 5 to 15 µM and 0.1 to 1 µM.
`O=C(NO)c1ccc(OCCN2C(=O)c3cc(F)ccc3Oc3ccccc32)cc1`: the IC50 in assay [1] (setting [3]) is < 1 µM; in assay [2] (Table 10), < 0.05 µM.
Regarding `O=C(NO)c1ccc(C2=Nc3ccccc3Oc3ccccc32)c(F)c1` [(E)-4-(dibenzo[b,f][1,4]oxazepin-11-yl)-3-fluoro-N-hydroxybenzamide], the half-inhibitory concentration (IC50) is 5 to 15 µM in assay [1] (setting [4]) and 1 to 10 µM in assay [2] (Table 8).
For the compound `O=C(CCCCCCN1c2ccccc2Oc2ccccc2S1(=O)=O)NO`, the 50% inhibitory concentration (IC50) in assay [1] (setting [3]) lay in the range of 1 to 5 µM; in assay [2] (Table 10), 0.1 to 1 µM.
Turning to `COc1cccc2c1C(c1ccc(C(=O)NO)cc1)=Nc1ccccc1O2` [(Z)—N-hydroxy-4-(1-methoxydibenzo[b,f][1,4]oxazepin-11-yl)benzamide], the IC50 in assay [1] (setting [4]) is > 15 µM; in assay [2] (Table 8), 0.1 to 1 µM.
In the same order, the values of `COc1cccc2c1Oc1ccc(C(F)(F)F)cc1N=C2c1ccc(C(=O)NO)cc1` [(Z)-N-hydroxy-4-(4-methoxy-8-(trifluoromethyl)dibenzo[b,f][1,4]oxazepin-11-yl)benzamide] are 5 to 15 µM and 0.1 to 1 µM.
Regarding `O=C(NO)c1cnc(N2C[C@@H]3C[C@H]2CN3c2cccc(OC(F)F)c2)nc1` [2-((1S,4S)-5-(3-(difluoromethoxy)phenyl)-2,5-diazabicyclo[2.2.1]heptan-2-yl)-N-hydroxypyrimidine-5-carboxamide], the 50% inhibitory concentration (IC50) in assay [1] (setting [5]) was < 1 µM; in assay [2] (Table 9), < 0.05 µM.
Take `O=C(NO)c1ccc(C2=Nc3ccccc3N(CCCN3CCOCC3)c3ncccc32)cc1` [(Z)-N-hydroxy-4-(11-(3-morpholinopropyl)-11H-benzo[b]pyrido[2,3-e][1,4]diazepin-5-yl)benzamide]: the 50% inhibitory concentration (IC50) in assay [1] (setting [4]) was 1 to 5 µM; in assay [2] (Table 8) it was 0.1 to 1 µM.
In the same order, the values of `O=C(NO)c1ccc(C2=Nc3ccccc3Oc3c2cccc3C(F)(F)F)cc1` [(Z)—N-hydroxy-4-(4-(trifluoromethyl)dibenzo[b,f][1,4]oxazepin-11-yl)benzamide] are > 15 µM and < 0.05 µM.
`O=C(CCCCON=C1c2ccccc2CCc2ccccc21)NO`: the IC50 in assay [1] (setting [3]) was in the range of 5 to 15 µM; in assay [2] (Table 10), 0.1 to 1 µM.
In the case of `CN1C(=O)CN=C(c2ccc(C(=O)NO)cc2)c2ccccc21` [(Z)-N-hydroxy-4-(1-methyl-2-oxo-2,3-dihydro-1H-benzo[e][1,4]diazepin-5-yl)benzamide], the IC50 fell in the range of 5 to 15 µM in assay [1] (read-out: HDAC Inhibition (IC50 μM) WC mouse cortical neurons, Table 10) and 0.1 to 1 µM in assay [2] (Table 10).
For the compound `O=C(CCc1ccc(CN2C(=O)c3ccccc3Oc3ccccc32)cc1)NO` [N-hydroxy-3-(4-((11-oxodibenzo[b,f][1,4]oxazepin-10(11H)-yl)methyl)phenyl)propanamide], the results for the concentration for half-maximal inhibition (IC50) in assay [1] (setting [3]) and in assay [2] (Table 10) were 1 to 5 µM and 0.1 to 1 µM, respectively.
For `O=C(NO)c1ccc(C#CCN2C(=O)c3ccccc3Oc3ccccc32)cc1` [N-hydroxy-4-(3-(11-oxodibenzo[b,f][1,4]oxazepin-10(11H)-yl)prop-1-ynyl)benzamide], the concentration for half-maximal inhibition (IC50) in assay [1] (setting [3]) was 1 to 5 µM; in assay [2] (Table 10) it was < 0.05 µM.
As for `O=C(NO)c1ccc(C2=Nc3ccccc3Oc3ccccc32)cc1` [(Z)-4-(dibenzo[b,f][1,4]oxazepin-11-yl)-N-hydroxybenzamide], the IC50 is < 1 µM in assay [1] (setting [4]) and < 0.05 µM in assay [2] (Table 8).
The like results for `O=C(NO)c1ccc(CNC2=Nc3ccccc3Oc3ccccc32)cc1` [(E)-4-((dibenzo[b,f][1,4]oxazepin-11-ylamino)methyl)-N-hydroxybenzamide] were, in that order, < 1 µM and < 0.05 µM.
The like results for `COc1ccc2c(c1)C(c1ccc(C(=O)NO)cc1)=Nc1ccccc1O2` [(Z)—N-hydroxy-4-(2-methoxydibenzo[b,f][1,4]oxazepin-11-yl)benzamide] were, in that order, 5 to 15 µM and 0.1 to 1 µM.
Consider `O=C(NO)c1ccc(CON=C2c3ccccc3CCc3ccccc32)cc1`, for which the concentration for half-maximal inhibition (IC50) in assay [1] (setting [3]) fell in the range of 5 to 15 µM; in assay [2] (Table 10), 0.1 to 1 µM.
As to `O=C(NO)c1cnc(N2C[C@@H]3C[C@H]2CN3C(=O)OC2CCOCC2)nc1` [(1S,4S)-tetrahydro-2H-pyran-4-yl 5-(5-(hydroxycarbamoyl)pyrimidin-2-yl)-2,5-diazabicyclo[2.2.1]heptane-2-carboxylate], the half-maximal inhibitory concentration (IC50) is < 1 µM in assay [1] (setting [5]) and < 0.05 µM in assay [2] (Table 9).
On to `O=C(CCCCCCN1C(=O)c2ccccc2Sc2ccccc21)NO` [N-hydroxy-7-(11-oxodibenzo[b,f][1,4]thiazepin-10(11H)-yl)heptanamide], for which the results for the IC50 in assay [1] (setting [3]) and in assay [2] (Table 10) were < 1 µM and < 0.05 µM, respectively.
As for `O=C(NO)c1cnc(C2c3ccccc3C=Cc3ccccc32)nc1`, the IC50 was > 15 µM in assay [1] (setting [3]) and 0.1 to 1 µM in assay [2] (Table 10).
Regarding `O=C(NO)c1cnc(N2C[C@@H]3C[C@H]2CN3c2cncc(C(F)(F)F)c2)nc1` [N-hydroxy-2-((1S,4S)-5-(5-(trifluoromethyl)pyridin-3-yl)-2,5-diazabicyclo[2.2.1]heptan-2-yl)pyrimidine-5-carboxamide], the IC50 in assay [1] (setting [5]) was < 1 µM; in assay [2] (Table 9), < 0.05 µM.
Consider `O=C(CCCCCON=C1c2ccccc2CCc2ccccc21)NO`, for which the IC50 in assay [1] (setting [3]) is 5 to 15 µM; in assay [2] (Table 10), 0.1 to 1 µM.
On to `O=C(NO)c1ccc(C2=Nc3ccccc3N(CCN3CCOCC3)c3ncccc32)cc1` [(Z)-N-hydroxy-4-(11-(2-morpholinoethyl)-11H-benzo[b]pyrido[2,3-e][1,4]diazepin-5-yl)benzamide], for which the IC50 in assay [1] (setting [4]) lay within 1 to 5 µM; in assay [2] (Table 8), 0.05 to 0.1 µM.
`Cc1ccc2c(c1)Oc1ccccc1N=C2c1ccc(C(=O)NO)cc1` [(Z)—N-hydroxy-4-(3-methyldibenzo[b,f][1,4]oxazepin-11-yl)benzamide]: the IC50 in assay [1] (setting [4]) was 1 to 5 µM; in assay [2] (Table 8), < 0.05 µM.
Take `O=C(NO)c1cnc(N2C[C@H]3C[C@@H]2CN3c2cc(C(F)(F)F)ccn2)nc1` [N-hydroxy-2-((1R,4R)-5-(4-(trifluoromethyl)pyridin-2-yl)-2,5-diazabicyclo[2.2.1]heptan-2-yl)pyrimidine-5-carboxamide]: the IC50 in assay [1] (setting [5]) was < 1 µM; in assay [2] (Table 9), < 0.05 µM.
With `O=C(NO)c1ccc(C2=Nc3ccccc3Oc3ccc(F)cc32)cc1` [(Z)-4-(2-fluorodibenzo[b,f][1,4]oxazepin-11-yl)-N-hydroxybenzamide], the IC50 in assay [1] (setting [4]) was 1 to 5 µM; in assay [2] (Table 8), < 0.05 µM.
As for `O=C(NO)c1ccc(C2=Nc3ccccc3Oc3ccccc32)s1` [(E)-5-(dibenzo[b,f][1,4]oxazepin-11-yl)-N-hydroxythiophene-2-carboxamide], the IC50 was 1 to 5 µM in assay [1] (setting [4]) and < 0.05 µM in assay [2] (Table 8).
Take `O=C(NO)c1ccc(C2=Nc3ccccc3Oc3c(OC(F)(F)F)cccc32)cc1` [(Z)—N-hydroxy-4-(4-(trifluoromethoxy)dibenzo[b,f][1,4]oxazepin-11-yl)benzamide]: the concentration for half-maximal inhibition (IC50) in assay [1] (setting [4]) is > 15 µM; in assay [2] (Table 8) it was 0.1 to 1 µM.
Take `O=C(NO)c1ccc(N2C[C@@H]3C[C@H]2CN3c2cccc(C(F)(F)F)c2)nn1` [N-hydroxy-6-((1S,4S)-5-(3-(trifluoromethyl)phenyl)-2,5-diazabicyclo[2.2.1]heptan-2-yl)pyridazine-3-carboxamide]: the results for the 50% inhibitory concentration (IC50) in assay [1] (setting [5]) and in assay [2] (Table 9) were 5 to 15 µM and 0.1 to 1 µM, respectively.
Turning to `O=C(NO)c1ccc(C2=Nc3ccccc3Oc3cnccc32)cc1` [(Z)-4-(benzo[b]pyrido[4,3-f][1,4]oxazepin-5-yl)-N-hydroxybenzamide], the IC50 in assay [1] (setting [4]) was < 1 µM; in assay [2] (Table 8) it was 0.1 to 1 µM.
Take `O=C(NO)c1cnc(N2CC3CC(CN(c4cc(C(F)(F)F)ccn4)C3)C2)nc1` [N-hydroxy-2-(7-(4-(trifluoromethyl)pyridin-2-yl)-3,7-diazabicyclo[3.3.1]nonan-3-yl)pyrimidine-5-carboxamide]: the figures for the IC50 in assay [1] (setting [5]) and in assay [2] (Table 9) were > 15 µM and 0.1 to 1 µM, respectively.

Usually IC50 stands for the point on the concentration scale where inhibition reaches its midpoint.
